This is an account of results in patent publication US20240317722A1, “HETEROARYL-3-PIPERIDINEDIONE COMPOUND AND USE THEREOF” (Medshine Discovery Inc., priority 2021, published 2024).

pIC50: −log10 of the molar value. Like-named read-outs stand apart in the source and are kept apart here.

One series deals with MDA-MB-231. In words: Anti-proliferative effect in MDA-MB-231 (CellTiter-Glo). The note with it: MDA-MB-231, 3 days; for pIC50: Homo sapiens, 72 h. The format is cell-based, human. How it is done:
(§1) This assay studied the inhibitory effect of the compounds on cell proliferation by detecting the effect of the test compounds on the in vitro activity of tumor cells MV4-11 and MDA-MB-231.
(§2) The tumor cell lines were cultured in an incubator at 37° C., 5% CO2 or 0% CO2according to the above culture conditions. The cells were periodically passaged, and cells in logarithmic growth phase were taken for plating. • 2. Cell plating • (1). Cells were stained with trypan blue and viable cells were counted. • (2).
(§3) • (3). 90 μL of cell suspension was added to each well of the culture plate, and culture medium without cells was added to the blank control well. • (4). The plate was incubated overnight in an incubator at 37° C., 5% CO2 or 0% CO2, and 100% relative humidity. • 3. Preparation of a compound storage plate
(§4) Preparation of a 400× compound storage plate: The compounds were diluted with DMSO in a gradient from the highest concentration to the lowest concentration. The plates were prepared freshly at each time for use. • 4. Preparation of 10× compound working solution and treatment of cells with compounds • (1). Preparation of 10× compound working solution: compound or DMSO was added, and the well content was mixed to uniform by aspiration and expelling with pipette. 78 μL of cell culture medium was added to a 96-well plate with a V-shaped bottom. 2 μL of the compound from the 400× compound storage plate was added to the cell culture medium in the 96-well plate. 2 μL of DMSO was added to the vehicle control and the blank control. After adding compound or DMSO, the well content was mixed to uniform by aspiration and expelling with pipette. • (2). Dosing: 10 μL of 10× compound working solution was added to the cell culture plate. 10 μL of DMSO-cell culture mix solution was added to the vehicle control and blank control. • (3). The 96-well cell plate was placed back into the incubator and cultured for 3 days. • 5. CellTiter-Glo luminescence cell viability detection
The following steps were performed according to the instruction of Promega CellTiter-Glo luminescence cell viability detection kit (Promega-G7573). • (1). The CellTiter-Glo buffer was thawed and allowed to stand to reach room temperature; • (2). CellTiter-Glo substrate was allowed to stand to reach room temperature; • (3). 10 mL of CellTiter-Glo buffer was added to CellTiter-Glo substrate in a bottle to dissolve the substrate to formulate CellTiter-Glo working solution; • (4). The working solution was vortexed slowly for fully dissolution; • (5). The cell culture plates were taken out and allowed to stand for 30 minutes to equilibrate to room temperature; • (6). 50 μL (equal to half the volume of cell culture solution in each well) of Cell Titer-Glo working solution was added into each well. The cell plate was wrapped with aluminum foil to protect the cell plate from light; • (7). The culture plates were shaken on an orbital shaker for 2 minutes to induce cell lysis; • (8). The culture plates were left at room temperature for 10 minutes to stabilize the luminescence signal; • (9). The luminous signal was detected on the 2104 En Vision plate reader. • 6. Data analysis
The following formula was used to calculate the inhibition rate (IR) of the test compounds: IR (%)=(RLU of the vehicle control−RLU of the compound)/(RLU of the vehicle control−RLU of the blank control)*100%. The inhibition rates of the compounds at different concentrations were calculated in Excel, and then GraphPad Prism software was used to graph the inhibition curves and calculate the relevant parameters, including the minimum inhibition rate, maximum inhibition rate and IC50.

Series [1] addresses T1, GSPT1 (Homo sapiens, UniProt P15170+Q96SW2). Put plainly: Effect of degrading GSPT1 protein (Western blot) in BxPC-3 cells. Details: endogenous in cells; host or cells: BxPC-3. The format is cell-based. The note with it: 10 μM, 1 μM and 0.1 μM, 24 hours, Western blot (FIG. 1). As to the method:
BxPC-3 cells were treated with 10 μM, 1 μM and 0.1 μM of the test compound respectively for 24 hours. The cells were collected and lysed, denatured at 100° C. for 20 minutes, and then subjected to Western blot analysis. β-actin was used as the internal reference protein to detect the protein level of GSPT1. The main steps included: 1) Electrophoresis: Biorad precast gel was used to separate proteins using SDS-PAGE electrophoresis; 2) Transfer to membrane: Biorad rapid transfer to membrane system was used to transfer the proteins on the gel to PVDF membrane; 3) Blocking: the PVDF membrane with Western blotting was placed into an antibody incubation box, and blocking solution was added to completely cover the PVDF membrane for incubation at room temperature for 1 hour; 4) Incubation of the primary antibody: the above PVDF membrane was covered with GSPT1 antibody diluent, and incubated on a shaker at 4° C. overnight, 5) Incubation of the secondary antibody: the membrane was washed three times with Wash buffer, and secondary antibody diluent (Anti-rabbit IgG, HRP-linked) was added for incubation on a shaker at room temperature for 1 hour; 5) Exposure: the membrane was washed three times with Wash buffer, and the band on the membrane was detected using chemiluminescence method (Clarity Western ECL Substrate).

A further series relates to MV4-11. In words: Anti-proliferative effect in MV4-11 (CellTiter-Glo). The format is cell-based. The note with it: MV4-11, 3 days; for pIC50: Homo sapiens, 72 h. How it is done: as §1, §2, §3, §4
The following steps were performed according to the instruction of Promega CellTiter-Glo luminescence cell viability detection kit (Promega-G7573). • (1). The CellTiter-Glo buffer was thawed and allowed to stand to reach room temperature; • (2). CellTiter-Glo substrate was allowed to stand to reach room temperature; • (3). 10 mL of CellTiter-Glo buffer was added to CellTiter-Glo substrate in a bottle to dissolve the substrate to formulate CellTiter-Glo working solution; • (4). The working solution was vortexed slowly for fully dissolution; • (5). […] The culture plates were left at room temperature for 10 minutes to stabilize the luminescence signal; • (9). The luminous signal was detected on the 2104 En Vision plate reader. • 6. […]

The nature of series [2]: Pharmacokinetics of compounds in mice. Conditions: for bioavailability / clearance / Vd / half-life: male, C57BL/6N, mouse, plasma; for bioavailability: read-out: Bioavailability F; for Vd: read-out: Apparent volume of distribution; for half-life: read-out: Elimination half-life (converted). The series is classed as in vivo, C57BL/6N mice. From the text:
In this study, C57BL/6N male mice were selected as the test animals, and the LC/MS/MS method was used to quantitatively determine the drug concentration in the plasma of mice intravenously or orally administered the test compounds, so as to evaluate the pharmacokinetic profile of the test compounds in mice.
C57BL/6N mice (male, 20-30 g, 7-10 weeks old, Beijing Vital River).
A clear solution or suspension of the test compound was intravenously injected into C57BL/6N mice (fasted overnight) via tail or given to C57BL/6N mice (fasted overnight) by gavage. For intravenous injection administration, blood was collected from the cheek at 0 h (before administration) and 0.083, 0.25, 0.5, 1, 2, 4, 6, 8, and 24 h after administration. Each sample was collected about 0.05 mL. Heparin sodium was added to anti-coagulate. Plasma samples were collected and placed on wet ice, and centrifuged within 1 hour to separate the plasma (centrifugation conditions: 6000 g, 3 minutes, 2-8° C.). Blood samples were stored in a −80° C. refrigerator before analysis; For oral gavage administration, blood was collected from the cheek at 0 h (before administration) and 0.083, 0.25, 0.5, 1, 2, 4, 6, 8, 24 h after administration. Each sample was collected about 0.05 mL. Heparin sodium was added to anti-coagulate. Plasma samples were collected and placed on wet ice, and centrifuged within 1 hour to separate the plasma (centrifugation conditions: 6000 g, 3 minutes, 2-8° C.). Blood samples were stored in a −80° C. refrigerator before analysis. Through blood drug concentration data at different time points, Phoenix WinNonlin8.2.0 was used to calculate pharmacokinetic parameters, providing parameters such as AUC0-t, AUC0-∞, MRT0-∞, Cmax, Tmax, and T1/2, etc. and their mean and standard deviation.

For series [3], the target named is T1, GSPT1. Put plainly: Target protein degradation in HEK293T-LgBiT_GSPT1-nHiBiT cells (HiBiT luminescence). Conditions: 16 to 18 hours; for Dmax: read-out: Max. DR (maximum degradation rate). Further details: expressed in transfected cells. The format is cell-based. How it is done: This assay was performed to detect the degradation effect of the test compound on the target protein GSPT1 in HEK293T-LgBiT cells.
• 1. Preparation of compounds • (1). Dissolving the powder of the test compound with DMSO to 10 mM as the storage concentration, and using a pipette to manually draw 9 μL of 10 mM or 3 mM test compound to columns 1 and 13 of a LDV plate; • (2). Using multidrop Combi to add 6 μL of DMSO to columns 2-12 and 14-24; • (3). Using Bravo to dilute the test compound 3 times (3 μL+6 μL) from columns 1 to 11 and 13 to 23; • (4). According to the layout of the plate, using Echo to transfer 25 nL of compound solution (columns 1-24 of the LDV plate) to the assay plate; • (5). Using Echo to transfer 25 nL of 1 mM positive control solution to the assay plate as a 100% degradation control (i.e. LC, HPE), and to transfer 25 nL of DMSO to the assay plate as a 0% control (i.e. HC, ZPE). • 2. Cell plating • (1). Discarding the cell culture medium, and washing the cells once with DPBS; then the cells were trypsinized, counted, and used to prepare a cell suspension of 4×10^5 cells/mL; • (2). Using MultiDrop Combi to add 25 μL/well of cell suspension at medium speed to the assay plate containing the test compound; • (3). Putting the assay plate containing cells back into the incubator and culturing it at 37° C. and 5% CO2 for 16 to 18 hours.
• (1). Using MultiDrop Combi to add 25 μL/well of detection reagent (NanoGlo lysis solution+substrate+LgBit protein) to the assay plate at high speed, and shaking for 10 minutes; • (2). Centrifuging at 2000 rpm×1 min to remove bubbles; • (3). Reading the plate using Envision, US Luminescence detection method.
The following formula was used to calculate the degradation rate (DR) of the test compound: DR (%)=(RLU of vehicle control−RLU of compound)/(RLU of vehicle control−RLU of positive control)*100%, wherein the vehicle control was a blank control. The degradation rates of compounds at different concentrations were calculated in Excel, and then XLFit software was used to obtain inhibition curves and to calculate relevant parameters, including the minimum degradation rate, maximum degradation rate and DC50.

The mark [4] stands for this setting: administration by gavage, 10 mg/kg.

T1 sequence (P15170 whole entry): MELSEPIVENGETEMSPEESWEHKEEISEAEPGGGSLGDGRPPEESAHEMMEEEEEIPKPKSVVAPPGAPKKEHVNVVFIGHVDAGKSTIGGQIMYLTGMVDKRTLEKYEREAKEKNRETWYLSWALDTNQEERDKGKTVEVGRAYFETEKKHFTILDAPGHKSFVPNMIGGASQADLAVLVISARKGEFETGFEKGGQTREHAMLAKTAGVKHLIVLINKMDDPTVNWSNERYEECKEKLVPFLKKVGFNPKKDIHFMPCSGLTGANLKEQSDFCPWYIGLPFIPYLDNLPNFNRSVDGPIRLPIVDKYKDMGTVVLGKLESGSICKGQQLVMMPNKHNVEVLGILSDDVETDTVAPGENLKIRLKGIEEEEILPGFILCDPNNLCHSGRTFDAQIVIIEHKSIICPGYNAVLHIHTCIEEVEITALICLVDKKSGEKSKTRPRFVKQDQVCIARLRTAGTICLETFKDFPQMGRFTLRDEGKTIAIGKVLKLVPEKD
T1 sequence (Q96SW2 whole entry): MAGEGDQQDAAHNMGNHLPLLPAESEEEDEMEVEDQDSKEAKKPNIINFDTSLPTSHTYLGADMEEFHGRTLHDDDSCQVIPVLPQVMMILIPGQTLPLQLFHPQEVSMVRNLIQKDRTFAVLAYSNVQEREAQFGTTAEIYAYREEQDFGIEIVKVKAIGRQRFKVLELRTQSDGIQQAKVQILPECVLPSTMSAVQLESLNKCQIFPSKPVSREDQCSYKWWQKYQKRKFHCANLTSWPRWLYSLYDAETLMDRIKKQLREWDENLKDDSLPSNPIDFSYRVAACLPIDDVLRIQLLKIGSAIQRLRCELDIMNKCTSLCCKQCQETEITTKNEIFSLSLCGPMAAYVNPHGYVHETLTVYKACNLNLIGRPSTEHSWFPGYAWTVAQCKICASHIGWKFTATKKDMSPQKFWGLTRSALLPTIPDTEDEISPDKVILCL
T1 sequence (Q16531 whole entry partner): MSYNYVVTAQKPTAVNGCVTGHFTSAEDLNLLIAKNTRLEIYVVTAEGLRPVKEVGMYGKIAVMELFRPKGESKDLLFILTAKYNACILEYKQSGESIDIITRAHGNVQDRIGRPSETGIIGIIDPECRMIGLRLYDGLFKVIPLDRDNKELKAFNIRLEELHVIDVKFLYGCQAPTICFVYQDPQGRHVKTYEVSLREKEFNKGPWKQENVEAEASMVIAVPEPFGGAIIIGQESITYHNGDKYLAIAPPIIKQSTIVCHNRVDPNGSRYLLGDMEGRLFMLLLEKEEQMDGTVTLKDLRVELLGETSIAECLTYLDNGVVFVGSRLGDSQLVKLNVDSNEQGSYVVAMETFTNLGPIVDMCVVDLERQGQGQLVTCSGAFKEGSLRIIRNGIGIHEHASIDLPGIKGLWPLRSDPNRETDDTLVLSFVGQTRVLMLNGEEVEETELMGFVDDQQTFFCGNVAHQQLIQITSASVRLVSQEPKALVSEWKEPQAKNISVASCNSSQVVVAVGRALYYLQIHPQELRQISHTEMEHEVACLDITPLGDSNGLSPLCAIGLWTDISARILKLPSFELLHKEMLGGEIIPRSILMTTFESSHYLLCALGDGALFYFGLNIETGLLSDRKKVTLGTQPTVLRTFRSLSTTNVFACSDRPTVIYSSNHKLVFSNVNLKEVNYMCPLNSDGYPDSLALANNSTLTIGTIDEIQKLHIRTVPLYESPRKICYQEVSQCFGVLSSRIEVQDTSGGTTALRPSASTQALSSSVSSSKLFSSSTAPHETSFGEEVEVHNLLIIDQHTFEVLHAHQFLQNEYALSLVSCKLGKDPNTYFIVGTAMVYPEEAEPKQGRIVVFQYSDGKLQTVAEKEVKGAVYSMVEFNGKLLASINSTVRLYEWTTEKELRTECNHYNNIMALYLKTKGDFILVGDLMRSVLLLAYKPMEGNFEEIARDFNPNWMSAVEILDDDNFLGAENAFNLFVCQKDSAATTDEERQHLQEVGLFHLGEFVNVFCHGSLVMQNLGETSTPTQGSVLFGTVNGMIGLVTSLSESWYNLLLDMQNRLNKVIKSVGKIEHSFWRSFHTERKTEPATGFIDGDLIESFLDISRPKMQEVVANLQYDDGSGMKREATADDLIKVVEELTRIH

Take `Cc1ccc(NC(=O)NCc2ccc3occ(C4CCC(=O)NC4=O)c3c2)cc1Cl` (stereo not shown) [WX001]: in the series with MDA-MB-231, the negative-log IC50 (pIC50) is 7.24 and the “Max. IR (maximum inhibition rate)” value stood at 69.41%. Further, the “effect of promoting the degradation of GSPT1 protein” value at GSPT1 [1] is given as “significant effect of promoting the degradation of GSPT1 protein”. Besides, in the series with MV4-11, the pIC50 was 7.52 and the “Max. IR (maximum inhibition rate)” value worked out at 99.95%.

For the molecule `O=C(COc1cccc(-c2csc(N3CCOCC3)n2)c1)NCCCCCCC(=O)Nc1ccc2c(C3CCC(=O)NC3=O)coc2c1` (stereo not shown) [WX003], the pIC50 was 7.28 in the series with MDA-MB-231 and 8.22 in the series on MV4-11. For the same molecule, the “Max. IR (maximum inhibition rate)” value in the series on MDA-MB-231 worked out at 65.29%; in the series on MV4-11, 100.15%.

Consider `Cc1c(Cl)cc(NC(=O)NCc2ccc3c(C4CCC(=O)NC4=O)coc3c2)cc1OCCN1CCOCC1` (stereo not shown) [WX006], for which, in series [2] (setting [4]), the “Area under the plasma concentration-time curve (0-inf)” value (shortened to “Area”) stood at 2.71 µM·h, the Peak concentration worked out at 1.76 µM and the Time to peak is recorded as 0.50 h. Also, in series [2] (intravenous injection, 1 mg/kg), the “Area” value amounted to 1.90 µM·h, the clearance was determined as 15.8 mL/min/kg, the Vd came to 2.3 L/kg and the half-life is 3.62 h. Also, the bioavailability in series [2] (PO 10 mg/kg vs IV 1 mg/kg) was 14.2%. Also, in the series on MDA-MB-231, the pIC50 is 8.33 and the “Max. IR (maximum inhibition rate)” value was 80.3%. Further, at GSPT1 [3], it took 1.94 nM to reach half-maximal degradation (DC50) and the Dmax came to 99.9%.

Regarding `Cc1c(Cl)cc(NC(=O)NCc2ccc3c(C4CCC(=O)NC4=O)noc3c2)cc1OCCN1CCOCC1` (stereo not shown) [WX012], in series [2] (setting [4]), the “Area” value was found to be 1.99 µM·h, the Peak concentration came to 0.69 µM and the Time to peak came to 1.08 h. In series [2] (intravenous injection, 2 mg/kg), the “Area” value turned out to be 6.45 µM·h, the clearance came out at 9.5 mL/min/kg, the Vd worked out at 0.41 L/kg and the half-life is 1.85 h. In addition, the bioavailability in series [2] (PO 10 mg/kg vs IV 2 mg/kg) was 6.18%. For the same molecule, at GSPT1 [3], the DC50 is 1.18 nM and the Dmax was determined as 99.8%.
